“Also recorded” adds a separate entry of the source.
Columns and labels:
[1] = tested on: Influenza; type: cell-based, influenza virus
[2] = Serum levels of 365 in BALB/c mice; details: 5 mg/kg dose
[3] = tested on: PRRS virus; type: cell-based
[4] = tested on: Ebola virus; experiment: microbe, parasite or virus in culture; type: cell-based
[5] = tested on: Hepatitis C Virus; type: cell-based
[6] = Response of mice to doses of 365 (safety)
[7] = tested on: Bovine Corona virus; type: cell-based
[8] = tested on: Marburg virus; experiment: organism not typed; type: cell-based
[9] = tested on: Rift Valley Fever Virus; type: cell-based
[10] = tested on: SARS; type: cell-based
[11] = tested on: Lassa Fever Virus; type: cell-based
[12] = tested on: PBMC; experiment: Cytokine levels in PBMC; details: 5 uM dose
[13] = tested on: HIV; experiment: HIV infection in MT-4 cells; type: cell-based; details: modest concentrations
[14] = tested on: cowpox virus; parameters: species or system mice; details: mouse, in vivo
[15] = tested on: Dengue serotypes; type: cell-based, Dengue virus
[16] = Serum concentration of 723 in guinea pigs; details: guinea pig
[17] = tested on: Marburg virus; parameters: species or system mice; details: mouse, in vivo
[18] = In vivo safety/toxicity (LD50) study of 723
[19] = tested on: Hepatitis B virus (HBV); experiment: Hepatitis B virus cell based assay; details: dose response
[20] = in vivo; details: mouse, ip, 10 mg/kg
[21] = tested on: Ebola virus; parameters: species or system mice; details: mouse, in vivo
[22] = tested on: wide variety of cells; experiment: CC50 cytotoxicity of 723 in a variety of cell types; details: cell based assays against a wide variety of cells
[23] = mouse, in vivo
[24] = tested on: Paramyxoviruses including Parainfluenza and Respiratory Syncitial Virus; type: cell-based
[25] = mouse, in vivo, ip
[26] = biological target: Caspase 8 (Homo sapiens, UniProt Q14790); type: biochemical
Sequence of Caspase 8 (Q14790 217-374 limits assumed, species assumed): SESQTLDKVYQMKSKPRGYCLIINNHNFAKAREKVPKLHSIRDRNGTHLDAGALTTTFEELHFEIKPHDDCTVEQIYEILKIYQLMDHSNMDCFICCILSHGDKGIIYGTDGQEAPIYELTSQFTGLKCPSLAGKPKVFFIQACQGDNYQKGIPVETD
Sequence of Caspase 8 (Q14790 385-479 limits assumed, species assumed): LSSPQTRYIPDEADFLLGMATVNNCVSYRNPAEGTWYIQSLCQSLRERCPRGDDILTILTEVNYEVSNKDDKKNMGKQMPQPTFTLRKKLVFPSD

[27] = biological target: Caspase 3 (Homo sapiens, UniProt P42574); type: biochemical
Sequence of Caspase 3 (P42574 29-175 limits assumed, species assumed): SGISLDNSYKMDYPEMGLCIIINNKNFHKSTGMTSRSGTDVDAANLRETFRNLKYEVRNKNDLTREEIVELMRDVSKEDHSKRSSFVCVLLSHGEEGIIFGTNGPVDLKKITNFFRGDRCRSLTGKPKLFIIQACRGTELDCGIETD
Sequence of Caspase 3 (P42574 176-277 limits assumed, species assumed): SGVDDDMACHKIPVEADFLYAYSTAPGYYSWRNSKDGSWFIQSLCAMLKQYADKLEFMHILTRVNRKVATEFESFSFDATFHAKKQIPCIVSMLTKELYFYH

[28] = biological target: Caspase 9 (Homo sapiens, UniProt P55211); type: biochemical
Sequence of Caspase 9 (P55211 1-315 limits assumed, species assumed): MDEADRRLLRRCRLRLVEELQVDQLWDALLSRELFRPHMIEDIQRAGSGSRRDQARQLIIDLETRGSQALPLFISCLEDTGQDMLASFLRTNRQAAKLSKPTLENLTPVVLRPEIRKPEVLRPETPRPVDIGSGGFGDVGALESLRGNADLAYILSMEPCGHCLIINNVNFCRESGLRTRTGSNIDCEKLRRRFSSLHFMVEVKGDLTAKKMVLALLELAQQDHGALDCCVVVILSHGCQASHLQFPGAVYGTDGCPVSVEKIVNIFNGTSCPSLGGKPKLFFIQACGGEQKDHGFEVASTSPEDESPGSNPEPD
Sequence of Caspase 9 (P55211 331-416 limits assumed, species assumed): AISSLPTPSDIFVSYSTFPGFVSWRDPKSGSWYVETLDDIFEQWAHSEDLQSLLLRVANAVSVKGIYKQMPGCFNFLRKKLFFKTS

[29] = biological target: Caspase 2 (Homo sapiens, UniProt P42575); type: biochemical
Sequence of Caspase 2 (P42575 170-325 limits assumed, species assumed): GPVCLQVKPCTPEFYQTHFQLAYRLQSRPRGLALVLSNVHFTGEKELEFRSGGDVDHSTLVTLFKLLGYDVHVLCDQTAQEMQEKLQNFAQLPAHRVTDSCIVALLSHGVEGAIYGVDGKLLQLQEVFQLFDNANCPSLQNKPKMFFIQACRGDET
Sequence of Caspase 2 (P42575 348-452 limits assumed, species assumed): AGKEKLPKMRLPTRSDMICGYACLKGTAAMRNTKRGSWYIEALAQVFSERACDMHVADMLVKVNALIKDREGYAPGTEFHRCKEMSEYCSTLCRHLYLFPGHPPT

[30] = biological target: Caspase 1 (Homo sapiens, UniProt P29466); type: biochemical
Sequence of Caspase 1 (P29466 120-297 limits assumed, species assumed): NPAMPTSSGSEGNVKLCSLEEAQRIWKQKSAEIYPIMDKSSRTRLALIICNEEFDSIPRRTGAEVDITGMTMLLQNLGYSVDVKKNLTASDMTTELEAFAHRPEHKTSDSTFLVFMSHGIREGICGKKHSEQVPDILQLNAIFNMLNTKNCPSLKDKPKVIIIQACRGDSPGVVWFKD
Sequence of Caspase 1 (P29466 317-404 limits assumed, species assumed): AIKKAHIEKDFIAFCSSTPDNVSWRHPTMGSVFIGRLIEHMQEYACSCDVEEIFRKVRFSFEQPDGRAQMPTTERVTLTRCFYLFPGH

[31] = tested on: cowpox virus; type: cell-based
[32] = tested on: West Nile Virus; type: cell-based
[33] = biological target: Caspase 10 (Homo sapiens, UniProt Q92851); experiment: Caspase inhibition; type: biochemical
Sequence of Caspase 10 (Q92851 220-415 limits assumed): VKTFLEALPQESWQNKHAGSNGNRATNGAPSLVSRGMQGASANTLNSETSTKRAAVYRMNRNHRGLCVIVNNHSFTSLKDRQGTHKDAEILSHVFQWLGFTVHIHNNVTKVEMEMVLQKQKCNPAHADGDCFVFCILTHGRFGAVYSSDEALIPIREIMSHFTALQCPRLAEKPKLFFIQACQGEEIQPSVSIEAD
Sequence of Caspase 10 (Q92851 416-521 limits assumed): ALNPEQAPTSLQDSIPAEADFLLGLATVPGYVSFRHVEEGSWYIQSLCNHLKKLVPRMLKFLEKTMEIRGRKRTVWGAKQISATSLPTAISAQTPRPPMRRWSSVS

[34] = biological target: Caspase 4 (Homo sapiens, UniProt P49662); experiment: Caspase inhibition; type: biochemical
Sequence of Caspase 4 (P49662 81-270 limits assumed, species assumed): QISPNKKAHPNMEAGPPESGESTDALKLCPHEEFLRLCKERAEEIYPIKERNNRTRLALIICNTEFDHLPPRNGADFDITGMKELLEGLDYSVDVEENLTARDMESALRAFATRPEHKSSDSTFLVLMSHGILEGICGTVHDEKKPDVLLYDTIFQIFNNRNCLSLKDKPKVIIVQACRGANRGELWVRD
Sequence of Caspase 4 (P49662 290-377 limits assumed, species assumed): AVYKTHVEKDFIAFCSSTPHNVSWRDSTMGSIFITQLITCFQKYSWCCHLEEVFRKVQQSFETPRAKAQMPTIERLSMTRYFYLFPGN

Cc1cc(NCCCN(C)C)c2ccc3c(ccc4c(NCCCN(C)C)cc(C)nc43)c2n1.Cl.Cl.Cl.Cl [Compound 365, Quino[8,7-h]quinoline-1,7-diamine,N,N′-bis[3-(dimethylamino)propyl]-3,9-dimethyl-tetrahydrochloride]
effectiveness against Influenza infection [1]: effective
time course of serum concentration [2]: leaves the serum relatively rapidly
EC100 [3]: 3.2 µM
effectiveness in inhibiting PRRS [3]: showed effectiveness
inhibition of Ebola virus [4]: 100%
inhibition of HCV (luciferase signal) [5]: complete inhibition
dose at which all animals survived [6]: up to 25 mg/kg
weight after administration ([6]; up to 25 mg/kg): not significantly impacted
effectiveness against Bovine Corona virus [7]: effective; also recorded: inhibited
suppression of Marburg Virus [8]: suppressed
EC50 [9]: 370 nM
inhibition of Rift Valley Fever Virus (zero viral particle release) [9]: 100%
inhibition of SARS [10]: inhibited
inhibition of Lassa Fever Virus [11]: suppressed
cytokine levels relative to agent-free vehicle [12]: not substantially different
inhibition of HIV [13]: 100%
survival outcomes [14]: did not ultimately improve survival outcomes
survival times [14]: uniformly extend survival times
effectiveness against Dengue serotypes [15]: effective

N=C(N)c1ccc2oc(C=Cc3nc4ccc(C(=N)N)cc4[nH]3)cc2c1 [Compound 723, 2-[2-(5-carbamimidoyl-benzofuran-2-yl)-vinyl]-3H-benzoimidazole-5-carboxamidine]
effectiveness against Influenza infection [1]: comparatively poorly
effectiveness in inhibiting PRRS [3]: showed effectiveness
half-life [16]: 4 h
protection, measured in terms of survival [17]: 100%
infection inhibition [4]: 100%
EC50 ([4]; Zaire ebolavirus): ≤ 50 nM
lethal dose ([18]; administered on day zero): 200 mg/kg
impact of dosing on weight over time ([18]; below 200 mg/kg): little or no impact
dose at which compound is well tolerated ([18]; in vivo): up to 100 mg/kg
effectiveness in treating HBV (reduction in viral copies) [19]: effectiveness, at nanomolar levels
half-life [20]: 2 h
protection on challenged mice [21]: 90%
survival [21]: 25%
treated animals survived [21]: 100%
CC50 [22]: well above safety thresholds
t1/2 in mammalian models [23]: two-four
protection against Paramyxovirus challenge [24]: effective in conferring a great degree of protection
effectiveness against Bovine Corona virus [7]: effective
EC50 [8]: ≤ 50 nM
infection inhibition [8]: 100%
concentrations in the liver and kidney [25]: high
concentrations in the spleen and the heart [25]: relatively low
effectiveness against Dengue serotypes [15]: effective

N=C(N)c1ccc(-c2ccc(-c3ccc(C(=N)N)cc3)s2)cc1 [Compound 510, benzenecarboxylmidamide,4,4′-(2,5-thiphenediyl)bis]
protection, measured in terms of survival [17]: 100%
inhibition measured in terms of cell survival [4]: 100%
inhibition of Caspase 8 [26]: elevated inhibition; also recorded: selective inhibition
inhibition of Caspase 3 [27]: selective inhibition
inhibition of Caspase 9 [28]: not
inhibition of Caspase 2 [29]: elevated inhibition; also recorded: selective inhibition
inhibition of Caspase 1 [30]: elevated inhibition; also recorded: to some degree
EC50 [31]: ~250 nM
protection against Ebola virus, therapeutic [21]: provided protection
protection against lethal challenge [21]: 100%
inhibition of West Nile Virus [32]: 100%
HCV viral titers [5]: zero
inhibition of Caspase 10 [33]: not
protection against Paramyxovirus challenge [24]: effective
inhibition measured in terms of cell survival [8]: 100%
inhibition of Lassa Fever Virus [11]: effective
inhibition of Caspase 4 [34]: not

From US8207209B2, “Methods of inhibiting viral infection” (priority 2007, dated 2012)
